How the values were obtained:
[1] = tested on: experimental edema in the rat by carragen; test: experimental edema in the rat by carragen (Winter method), percentage protection; type: in vivo; conditions: im; 23 mg/kg intramuscularly, rat; read-out: Percent protection calculated on edema development
Protocol: ^ (a) signifies that the product was administered intramuscularly.

gastro-intestinal system = test: secondary effects on the gastro-intestinal system at ED50 doses (gastric lesions); type: in vivo, rat; conditions: rat, in vivo
Protocol: In the same test, the ED50 of indomethacine is 9 mg/kg.

[2] = lethal dose in the rat and therapeutical index; conditions: in vivo
[3] = tested on: pleuritis induced in the rat by carragen; test: pleuritis induced in the rat by carragen (Velo method); type: in vivo; conditions: 75 mg/kg, oral, rat
[4] = granuloma test in the rat by cotton pellets; type: in vivo; conditions: in vivo, 9 mg/kg, oral, read-out: TI (granuloma test)
Excerpt: (§1) In the granuloma test in the rat by cotton pellets (Winter […]. et al (1963) J. Pharm. Exper.

[5] = tested on: granuloma in the rat by cotton pellets; test: granuloma test in the rat by cotton pellets; type: in vivo; conditions: 9 mg/kg, oral
Excerpt: as §1

mouse = test: hot plate test on the mouse according to Roberts (analgesic activity); type: in vivo; conditions: 37 mg/kg, oral
Protocol: C--The analgesic activity of the products was tested by two tests considered very significant.
In the hot plate test on the mouse according to Roberts (Roberts E. Simonsen D.G. (1966) Biochem. Pharmac. 15, 1875-) the MTA gives a protection of 50% with an oral dose of 37 mg/kg. An approximately equivalent protection of 58% is obtained with 100 mg/kg of amidopyrine administered orally.

[6] = tested on: stretching by phenylquinone; test: stretching test by phenylquinone (analgesic activity); type: in vivo; conditions: 37 mg/kg, oral
[7] = tested on: fever induced in the rat by beer yeast; test: fever induced in the rat by beer yeast (antipyretic activity); type: in vivo
Protocol: This was measured for the new products by means of fever induced in the rat by beer yeast (Winder C. V. et al (1961) J. Pharmacol. Exp. Ther. 133, 117).

[8] = tested on: platelet aggregation induced by ADP; test: in vitro platelet aggregation induced by ADP (Born & Cross method); type: cell-based
Protocol: (§2) (1) "in vitro" tests on platelet aggregation induced by ADP and collagen, in the presence of the new products;
(§3) Blood was withdrawn without stasis, and an anticoagulant (3.8% sodium citrate) was added to give a blood:citrate ratio of 9:1. Plasma rich in platelets and plasma poor in platelets were obtained by centrifuging at ambient temperature.
(§4) The platelet aggregation was estimated using the Born & Cross method (G. V. R. Born and M. J. Cross, J. Physiol., Lond. 168, 178, 1963) on the plasma fraction rich in platelets.
(§5) The aggregating agents were used in the following concentrations:
(§6) ADP (Sigma) 1 μM; collagen (Horn) 5 μml; arachidonic acid 4×10^-4 M.
Adenosine at a concentration of 1×10^-5 M was used as the antiaggregation activity reference substance.
The results obtained with ADP are shown on the graphs of FIG. 1, in which the abscissa indicates the time in minutes and the ordinate the percentage aggregation.
Curve 1 relates to the controls, curve 2 to the samples treated with 1×10^-5 M adenosine, and curve 3 to the samples treated with 5×10^-4 M MTA.

[9] = tested on: platelet aggregation induced by collagen; test: in vitro platelet aggregation induced by collagen (Born & Cross method); type: cell-based
Protocol: as §2, §3, §4, §5, §6

[10] = tested on: platelet aggregation induced by arachidonic acid; test: in vitro platelet aggregation induced by arachidonic acid (AA); type: cell-based
Protocol: (2) "in vitro" tests on platelet aggregation induced by arachidonic acid (AA);
as §3, §4, §5, §6
The capacity of MTA to increase the inhibiting effect of prostacyclin (PGI2) in aggregation induced by AA was also investigated. In FIG. 3, curve 1 relates to the controls, curve 2 to MTA at a concentration of 5×10^-4 M, curve 3 to PGI2 at a concentration of 5×10^-9 M, and curve 4 to a mixture consisting of 5×10^-4 M MTA and 5×10^-9 M PGI2.

[11] = tested on: platelet aggregation induced by ADP; test: platelet aggregation induced by ADP in persons treated with the product ("in vivo" tests); parameters: species or system healthy volunteer subjects; conditions: 100 mg every 8 hours for 3 days; ADP 1 μM; FIG. 4
Protocol: (§7) (3) "in vitro" tests on platelet aggregation induced by ADP and collagen in persons treated with the new products.
(§8) Three apparently healthy volunteer subjects respectively, and who had not taken any drug for at least 15 days, were submitted to aggregation tests before and after consuming the new products at a dose of 100 mg every 8 hours for 3 days, these tests then being evaluated. The blood sample for the determination of the platelet aggregation was taken 2 hours […] consuming the last dose of product under test.
More precisely, the full-line curves relate to the values obtained with blood samples from untreated patients, whereas the dashed-line curves relate to the values obtained for the same patients treated with MTA.

[12] = tested on: platelet aggregation induced by collagen; test: platelet aggregation induced by collagen in persons treated with the product ("in vivo" tests); parameters: species or system healthy volunteer subjects; conditions: 100 mg every 8 hours for 3 days; collagen 5 μg/ml
Protocol: as §7, §8

[13] = tested on: sleep induced by pentobarbital in the mouse; test: Morris test, duration of the sleep induced by pentobarbital in the mouse; type: in vivo; conditions: 20 mg/kg, intramuscular
Protocol: The Morris test was used (Morris R. W. (1966) Arch. int. Pharmacodyn 161, No. 2, 380)
In this test, the MTA increased by 87% the duration of the sleep induced by pentobarbital in the mouse, at an intramuscular dose of 20 mg/kg.

[14] = acute toxicity, DL50 in the mouse; conditions: in vivo, po, orally
Excerpt: The compounds of the present invention are practically free from acute toxicity when administered orally. They are practically free from toxicity at therapeutic doses for any method of administration. The following values are obtained for MTA and MTA sulphoxide: […]

[15] = tested on: experimental edema in the rat by carragen; test: experimental edema in the rat by carragen (Winter method), percentage protection; type: in vivo; conditions: po, rat
[16] = summary of in vitro and in vivo tests

## CSC[C@H]1O[C@@H](n2cnc3c(N)ncnc32)[C@H](O)[C@@H]1O [MTA, 5'-deoxy-5'-methyl-thioadenosine]
[1]
  inhibition in vivo at 23 mg/kg: 50%
gastro-intestinal system
  secondary effect on the gastro-intestinal system / gastric lesions: no secondary effect on the gastro-intestinal system
[2]; edema test in the rat, read-out: therapeutical index (TI)
  selectivity ratio: > 54
[2]; rat, route printed "/oa"
  LD50: 200 mg/kg
[3]
  protection calculated on the total number of cells present in the exudate: 48.8%
  protection calculated on the volume of the exudate: 42.4%
[4]
  selectivity ratio: 222
[5]
  protection in the granuloma test: 30%
mouse
  protection in the hot plate test: 50%
[6]
  protection in the stretching test by phenylquinone: 51%
[7]; 80 mg/kg, intramuscular
  temperature reduction: 2.35%
[7]; 300 mg/kg, oral, one hour after administration
  temperature reduction with respect to the controls: 4.59%
[7]; 300 mg/kg, oral, one hour after administration, lowering from 38.8° C.
  temperature after lowering (from 38.8° C.): 37.4 °C
[8]; 5×10^-4 M, ADP 1 μM, in vitro, FIG. 1
  effect on primary platelet aggregation due to ADP (in words): strongly reduces primary platelet aggregation due to ADP
[8]; 5×10^-4 M, ADP 1 μM, in vitro, as a consequence of reduced primary aggregation
  effect on 2nd aggregation wave (in words): inhibits the 2nd aggregation wave
[8]; [16]
  effect on the 1st aggregation wave (in words): inhibits the 1st aggregation wave
  inhibition of platelet aggregation induced by ADP, overall (in words): strongly inhibits platelet aggregation induced by ADP
[9]; in vitro, collagen printed 5 μml
  inhibiting power towards platelet aggregation induced by collagen (in words): no inhibiting power towards platelet aggregation induced by collagen which was worthy of note
[9]; [16]
  direct effect on the 2nd aggregation wave (in words): negligible direct effect on the 2nd aggregation wave
  effect on aggregation induced by collagen, overall (in words): practically no effect on aggregation induced by collagen
[10]; 2.5×10^-4, 5×10^-4 and 10^-3 M, AA 4×10^-4 M, FIG. 2
  platelet aggregation inhibiting effect, AA induced (in words): proportional to its concentration
[10]; MTA 5×10^-4 M or PGI2 5×10^-9 M, each alone, FIG. 3
  antiaggregation action alone, AA induced (in words): ineffective
[11]
  platelet aggregation induced by ADP "in vivo" (in words): strongly inhibits platelet aggregation induced by ADP
[12]
  inhibition of platelet aggregation induced by collagen (in words): not effective in inhibiting platelet aggregation induced by collagen
  latency time of platelet aggregation induced by collagen (in words): lengthens the latency time
[13]
  increase of the duration of the sleep induced by pentobarbital: 87%
[14]
  LD50: > 2000 mg/kg
[15]; 37 mg/kg orally, read-out: Percent protection calculated on edema development
  inhibition in vivo at 37 mg/kg: 50%
[15]; administered orally, read-out: ED50 (edema test)
  ED50: 37 mg/kg
